Results reported in paper PMC6651387, “Fine-Tuning the Activation Mode of an 1,3-Indandione-Based Ruthenium(II)-Cymene Half-Sandwich Complex by Variation of Its Leaving Group” (Molecules, 2019).
Like-named read-outs stand apart in the source and are kept apart here.

Assays:
[1] = Lipophilicity by RP-UHPLC capacity factors (logkw, Φ0); format: physicochemical
Excerpt: It stands to reason that the higher the lipophilicity, the higher the cell accumulation; as far as passive diffusion is concerned, the higher efficiency with which normal cell function is compromised. As a consequence, lipophilicity is an important factor in drug development, described by the partition coefficient logP, which is routinely determined by the distribution of a compound in 1-octanol/water. However, 1-octanol, a solvent said to closely mimic the solubilizing behavior of cell membranes, forms emulsions with water. Additionally, the shake-flask method, seemingly easy, requires long sample preparation, has a low sample throughput, and lacks reproducibility, as it hinges on exact temperature control and consistent equilibration time allotted for every analyte. The time-consuming nature of this method may also lead to decomposition of the analyte. A concentration-, flow rate-, and column length-independent method is the determination of the capacity factor (k) via HPLC. The capacity factor is a measure for the equilibrium concentration between a polar phase (eluent) and an apolar phase (C18 column coating) and higher resemblance to the partition coefficient in […]. […] The percentage of methanol in the eluent at which logk is equal to zero is Φ0 [27, 28, 29].
The capacity factors k were determined with the use of an RP-UHPLC. The necessary chromatograms were recorded with a Dionex UltiMate 3000 RS UHPLC system (Thermo Fisher Scientific, Bedford, MA, USA) controlled by the Dionex Chromeleon 7.2 software. […] The capacity factors were then calculated as logk = log[(tR − t0)/t0], where tR and t0 are the retention times of the analyte and the dead time marker, respectively, at the respective MeOH:0.1% FA in water ratio. Every retention time was determined in isocratic mode for the different eluent ratios to obtain capacity factors in the linear range (−0.5 ≤ logk ≤ 1.5) in triplicate. A plot of logk against the % of the organic eluent yielded logkw (intercept) and S (slope). Φ0, the factor most closely resembling logP, was then determined as follows: Φ0 = −logkw/S [28].

[2] = system: HCT116 (colon cancer) cells; assay: MTT antiproliferative assay, HCT116; format: cell-based, human; details: exposure time 96 h, means ± standard deviations
Procedure: (§1) CH1/PA-1 (ovarian teratocarcinoma) cells were a generous gift from Lloyd R. Kelland (CRC Centre for Cancer Therapeutics, Institute of Cancer Research, Sutton, UK). A549 (non-small cell lung cancer), SW480, and HCT116 (both colon cancer) cells were kindly provided by the Institute of Cancer Research, Department of Medicine I, Medical University of Vienna, Austria. All cell lines were grown as monolayer cultures in Eagle’s MEM supplemented with L-glutamine (4 mM), sodium pyruvate (1 mM) and 1% (v/v) non-essential amino acid solution (all from Sigma-Aldrich) and 10% (v/v) heat-inactivated fetal calf serum (FCS, BioWest) in 75-cm^2 flasks (Starlab) at 37 °C under a humidified atmosphere containing 5% CO2 in air. […] After 24 h, test compounds were dissolved in DMSO (Fisher Scientific), serially diluted in complete MEM not to exceed a final DMSO content of 0.5% (v/v) and added in 100 μL per well. After 96 h, the drug-containing medium was replaced with 100 µL of RPMI 1640/MTT mixture, i. e., 6 parts of RPMI 1640 medium (Sigma-Aldrich; supplemented with 10% heat-inactivated fetal bovine serum and 4 mM L-glutamine), 1 part of MTT solution in phosphate-buffered saline (5 mg/mL; both from Sigma-Aldrich). After incubation for 4 h, the MTT-containing medium was replaced with 150 μL DMSO per well to dissolve the formazan product formed by viable cells. Optical densities at 550 nm (and at the reference wavelength of 690 nm) were measured with a microplate reader (ELx808, Bio-Tek). The IC50 values relative to untreated controls were interpolated from concentration–effect curves. At least three independent experiments were performed, each with triplicates per concentration level.

[3] = system: SW480 (colon cancer) cells; assay: MTT antiproliferative assay, SW480; format: cell-based, human; details: exposure time 96 h, means ± standard deviations
Procedure: as §1

[4] = system: A549 (non-small cell lung cancer) cells; assay: MTT antiproliferative assay, A549; format: cell-based, human; details: exposure time 96 h, means ± standard deviations
Procedure: as §1

[5] = system: CH1/PA-1 (ovarian teratocarcinoma) cells; assay: MTT antiproliferative assay, CH1/PA-1; format: cell-based, human; details: exposure time 96 h, means ± standard deviations
Procedure: CH1/PA-1 (ovarian teratocarcinoma) cells were a generous gift from Lloyd R. Kelland (CRC Centre for Cancer Therapeutics, Institute of Cancer Research, Sutton, UK). A549 (non-small cell lung cancer), SW480, and HCT116 (both colon cancer) cells were kindly provided by the Institute of Cancer Research, Department of Medicine I, Medical University of Vienna, Austria. All cell lines were grown as monolayer cultures in Eagle’s MEM supplemented with L-glutamine (4 mM), sodium pyruvate (1 mM) and 1% (v/v) non-essential amino acid solution (all from Sigma-Aldrich) and 10% (v/v) heat-inactivated fetal calf serum (FCS, BioWest) in 75-cm^2 flasks (Starlab) at 37 °C under a humidified atmosphere containing 5% CO2 in air.
Antiproliferative activity of the compounds was determined with the colorimetric MTT assay (MTT = 3-(4,5-dimethyl-2-thiazolyl)-2,5-diphenyl-2H-tetrazolium bromide). CH1/PA-1, HCT116, SW480, and A549 cells with cell numbers of 1 × 10^3, 1.5 × 10^3, 2 × 10^3, and 3 × 10^3, respectively, were seeded in 100 μL per well into 96-well microculture plates (Starlab). After 24 h, test compounds were dissolved in DMSO (Fisher Scientific), serially diluted in complete MEM not to exceed a final DMSO content of 0.5% (v/v) and added in 100 μL per well. After 96 h, the drug-containing medium was replaced with 100 µL of RPMI 1640/MTT mixture, i. e., 6 parts of RPMI 1640 medium (Sigma-Aldrich; supplemented with 10% heat-inactivated fetal bovine serum and 4 mM L-glutamine), 1 part of MTT solution in phosphate-buffered saline (5 mg/mL; both from Sigma-Aldrich). After incubation for 4 h, the MTT-containing medium was replaced with 150 μL DMSO per well to dissolve the formazan product formed by viable cells. Optical densities at 550 nm (and at the reference wavelength of 690 nm) were measured with a microplate reader (ELx808, Bio-Tek). The IC50 values relative to untreated controls were interpolated from concentration–effect curves. At least three independent experiments were performed, each with triplicates per concentration level.

SW480 cells [6] = assay: Cellular accumulation by ICP-MS quantification of ruthenium (or platinum); format: cell-based, human; details: 50 µM, exposure time 2 h, ICP-MS of ruthenium
Procedure: Ruthenium accumulation was measured by means of inductively coupled plasma mass spectrometry (ICP-MS) upon 2 h exposure of SW480 cells to 50 µM of each compound.
Cellular accumulation of the compounds was studied based on a previously described method with modifications as follows: SW480 cells with a number of 1.8 × 10^5 per well were seeded into 12-well plates in aliquots of 1 mL complete MEM and incubated at 37 °C for 24 h. Then, cells were exposed for 2 h at 37 °C to 50 μM solutions of the test compounds (containing 0.5% DMSO) in 500 µL of fresh complete MEM upon exchange of the medium. Afterwards, cells were washed three times with PBS, and lyzed with 0.4 mL sub-boiled HNO3 per well for 1 h at room temperature. Ruthenium content was quantified by ICP-MS using an Agilent 7500ce quadrupole ICP-MS instrument (Agilent Technologies, Waldbronn, Germany) equipped with a CETAC ASX-520 autosampler (Nebraska, USA) and a MicroMist nebulizer. Ruthenium and indium standards were obtained from CPI International (Amsterdam, The Netherlands). The instrument was equipped with nickel cones and operated at an RF power of 1560 W, with argon as the plasma gas (15 L/min), carrier gas (1.0–1.1 L/min) and make-up gas (0.1–0.2 L/min). The Agilent MassHunter software package (Workstation Software, Version B.01.01, Build 123.11, Patch 4, 2012) was used for data processing. Results are based on at least three independent experiments, each comprising triplicate samples. The instrument was tuned on a daily basis for maximum sensitivity and doubly charged species as well as oxide rates were <5%.

[7] = MeOH, conventional desk lamp, UV-VIS 250–700 nm
Procedure: Light activation studies were performed on the same UV-VIS spectrometer. Fourty microliters of solutions (MeOH) were irradiated with a conventional desk lamp, and every 2.5–10 min (depending on progress) a wavelength scan (250–700 nm) was recorded.

[8] = system: A549 (non-small cell lung cancer) cells; set-up: method as in PMID 25032896; details: MTT assay, 96 h; cited from earlier work
[9] = system: SW480 (colon cancer) cells; set-up: method as in PMID 25032896; details: MTT assay, 96 h; cited from earlier work
[10] = system: CH1/PA-1 (ovarian teratocarcinoma) cells; set-up: method as in PMID 25032896; details: MTT assay, 96 h; cited from earlier work
SW480 cells [11] = system: SW480 cells; set-up: method as in PMID 27055943; details: exposure time 2 h, platinum; cited from earlier work

Row | Compound | Intercept logkw ([1]; RP-UHPLC, MeOH/0.1% formic acid in water, 25 °C, logk extrapolated to 100% water) | Φ0 ([1]; percentage of methanol in the eluent at which logk is zero, Φ0 = −logkw/S) | Slope S ([1]; slope of logk against % organic eluent (MeOH)) | IC50 [2] [µM] | IC50 [3] [µM] | IC50 [4] [µM] | IC50 [5] [µM] | cellular accumulation, fg Ru or Pt/Cell (SW480 cells [6]) | time until no more change upon light irradiation (completion of the reaction) [7] [min] | IC50 [8] [µM] | IC50 [9] [µM] | IC50 [10] [µM] | cellular accumulation, fg Ru or Pt/Cell (SW480 cells [11])
1 | Cc1ccc(C(C)C)cc1.F[P-](F)(F)(F)(F)F.O=C1C(=C(NCc2ccccc2)[O][Ru+])C(=O)c2ccccc21.c1ccncc1 [1f] | 5.25 | 62.07 | −0.0845 | 20.2 ± 6.4 | 6.3 ± 1.1 | 22.1 ± 3.2 | 8.2 ± 2 | 231 ± 93 fg Ru or Pt/Cell | 75 |  |  |  | 
2 | N.N.[Cl][Pt][Cl] [Cisplatin] |  |  |  |  |  |  |  |  |  | 6.2 ± 1.2 | 3.3 ± 0.2 | 0.077 ± 0.006 | 12 ± 2 fg Ru or Pt/Cell
